Laboratory results as given in patent US20220394981A1, “MICRONUTRIENT FORMULATIONS THAT CONTROL PLANT PATHOGENS” (priority 2021, published 2022).
Where two headings read alike, the source gives them in different places.

Columns and labels:
[1] = cited from earlier work
[2] = cited from earlier work; remark: listed apart in the source
[3] = cited from earlier work; remark: listed apart in the source
[4] = cited from earlier work; remark: listed apart in the source
[5] = cited from earlier work; remark: listed apart in the source
[6] = cited from earlier work; remark: listed apart in the source
CLas bacteria = format: in vivo, Ruby red grapefruit trees
Method: (§1) Experimental testing was performed at the Florida Research Center for Agricultural Sustainability (“FLARES”) in Vero Beach, Fla. where the inventor, Robert C. Adair, Jr. serves as the executive director after having founded FLARES in 2004. Testing was conducted on a uniform block of ninety-six (96) Ruby red grapefruit trees planted on Dec. 19, 2018 grafted with USDA “US-897” citrus rootstock. The red grapefruit trees were randomly assigned one of eight (8) treatments in twelve (12) replicated plots using a Randomized Complete Block (“RCB”) design to help ensure homogeneous conditions between test subject trees. The red grapefruit trees were treated using liquid formulations applied to the foliage, the soil proximal to the rhizosphere of the plant, or applied to both the foliage and the soil. The micronutrient chelate formulations were applied monthly, the citric acid treatments were applied weekly, and the iron nitrate treatment was applied every two weeks.
(§2) Before being treated, the red grapefruit trees were allowed time to establish root systems. The red grapefruit trees were exposed to infection of the CLas bacteria through native populations of the Asian citrus psyllid insect, which is the vector that spreads citrus greening disease among trees. The caliper, canopy diameter, and height for each grapefruit tree was measured prior to treatment and subsequently measured every six (6) to nine (9) months thereafter for the two-and-half (2.5) year duration of the experiment.
Individual leaf samples were collected from each of the ninety-six (96) trees and submitted to Southern Gardens Diagnostic Laboratory in Clewiston, Fla. for Polymerase Chain Reaction (“PCR”) analysis to determine the presence of CLas bacteria DNA. The results were expressed cycle threshold (“Ct”) values, and the logarithm of the copy number per milligram of tissue values were recorded and statistically evaluated. In a PCR analysis, a positive reaction is detected by the accumulation of a fluorescent signal. The Ct value is defined as the number of cycles required for a fluorescent signal to cross a threshold (i.e., exceeds background levels). Ct values are inversely proportional to the amount of a target nucleic acid in the sample being tested such that the lower the Ct level, the greater the amount of target nucleic acid in the sample. Ct values less than 29 are considered strong positive reactions indicative of an abundance of the target nucleic acid, and Ct values of 38-40 are indicative of minimal amounts of target nucleic acid.

citrus greening disease = format: in vivo, Ruby red grapefruit trees; settings: for Percentage of Trees Showing HLB Leaf Patterns: 270 days after the first treatment application
Method: as §1, §2
Tree condition was scored visually according to the disease indexing (“DI”) technique taught by Gottwald, Aubert, and Xue-Yuan. See Gottwald, T. R., B. Aubert, and Z. Xue-Yuan, Preliminary Analysis of Citrus Greening (Huanglungbin) Epidemics in the People's Republic of China and French Reunion Island, PHYTOPATHOLOGY Vol. No. 79: 687-693 (1989). Disease indexing techniques divide an image of a plant into multiple sections and/or subsections, such as hemispheres and quadrants, and assign each image section a score from zero to four. The score reflects the observable severity of disease impact on a plant with a score of four indicating a plant with no visible symptoms and a score of zero indicating the highest level of severity. The score for all sections of a plant image are added together to establish an overall DI score for a particular plant image, such that a healthy vigorous tree with no symptoms has a DI of 16.
Table 5 below presents data from the visual inspection of the red grapefruit trees for the symptoms of citrus greening disease measured at 270 days after the first treatment application or approximately half way through the experiment.

[7] = test system: Ruby red grapefruit trees; experiment: Tree growth versus untreated control, field trial; settings: in vivo
Method: as §1
Before being treated, the red grapefruit trees were allowed time to establish root systems. […] The caliper, canopy diameter, and height for each grapefruit tree was measured prior to treatment and subsequently measured every six (6) to nine (9) months thereafter for the two-and-half (2.5) year duration of the experiment.
Canopy areas were determined from aerial images captured by a camera-equipped unmanned aerial vehicle (“UAV”). […]

[8] = treatments applied as in Table 1 (foliar and/or soil)
[9] = treatments applied as in Table 1 (foliar and/or soil), listed as Fe(III)EDDHA

O=C(O)CC(O)(CC(=O)O)C(=O)O [Citrate]
LogK Mn2+ (stability constant) [1]: 3.7
LogK Fe2+ (stability constant) [2]: 3.2
LogK Fe3+ (stability constant) [3]: 11.85
LogK Zn2+ (stability constant) [4]: 4.9
LogK Cu2+ (stability constant) [5]: 5.9
LogK Ca2+ (stability constant) [6]: 4.7

O=C(O)CN(CCN(CC(=O)O)CC(=O)O)CCN(CC(=O)O)CC(=O)O [DTPA, diethylenetriaminepentaacetic acid]
LogK Mn2+ (stability constant) [1]: 15.1
LogK Fe2+ (stability constant) [2]: 16.5
LogK Fe3+ (stability constant) [3]: 28.6
LogK Zn2+ (stability constant) [4]: 18.3
LogK Cu2+ (stability constant) [5]: 21.1
LogK Ca2+ (stability constant) [6]: 10.7

O=C(O)CN(CCN(CC(=O)O)CC(=O)O)CC(=O)O [EDTA]
LogK Mn2+ (stability constant) [1]: 13.6
LogK Fe3+ (stability constant) [3]: 25.1
LogK Zn2+ (stability constant) [4]: 16.5
LogK Cu2+ (stability constant) [5]: 18.8
LogK Ca2+ (stability constant) [6]: 10.7

O=C([O-])C(NCCNC(C(=O)[O-])c1ccccc1[O-])c1ccccc1[O-].[Fe+3].[Na+] (centres unmarked) [Fe-EDDHA]
% of PCR Analysis Showing No CLas (Ct values = 40) (CLas bacteria; [8]): 50%
Average Ct values based on qPCR analysis of citrus leaves (CLas bacteria; [8]): 34.9
Log Copy #/1 mg of Leaf Tissue (CLas bacteria; [8]): 1.2
% of PCR Analysis Showing No CLas (Ct values = 40) (CLas bacteria; [9]): highest percentage
Average Ct values based on qPCR analysis of citrus leaves (CLas bacteria; [9]): highest Ct values
Log Copy #/1 mg of Leaf Tissue (CLas bacteria; [9]): the lowest
Percentage of Trees Showing HLB Leaf Patterns (citrus greening disease; treatments as in Table 1): 10%
Percentage of Trees Showing HLB Leaf Patterns (citrus greening disease; treatments as in Table 1, listed as Fe(III)EDDHA): lowest percentage of observable symptoms
symptoms of citrus greening disease, visually and analytically (CLas bacteria by PCR) (citrus greening disease; foliar and soil application): reduced the symptoms of citrus greening disease
citrus greening disease leaf symptoms, visual inspection (citrus greening disease; infected grapefruit trees): reduced
tree growth versus an untreated control [7]: increased tree growth
LogK Fe3+ (stability constant) [3]: 35.40

O=C(O)[C@H](O)[C@@H](O)[C@H](O)[C@H](O)CO [Gluconate]
LogK Fe2+ (stability constant) [2]: 1.0
LogK Fe3+ (stability constant) [3]: 10.0
LogK Zn2+ (stability constant) [4]: 1.7?
LogK Cu2+ (stability constant) [5]: 36.0
LogK Ca2+ (stability constant) [6]: 1.2

O=C(O)CN(CCN(CC(=O)O)Cc1ccccc1O)Cc1ccccc1O [HBED, N,N′-bis(2-hydroxyphenyl)ethylenediamine-N,N′-diacetic acid]
LogK Mn2+ (stability constant) [1]: 16.5
LogK Fe2+ (stability constant) [2]: 17.3
LogK Fe3+ (stability constant) [3]: 39.0
LogK Zn2+ (stability constant) [4]: 18.3
LogK Cu2+ (stability constant) [5]: 21.4
LogK Ca2+ (stability constant) [6]: 9.3

O=C(O)CN(CCO)CCN(CC(=O)O)CC(=O)O [HEDTA]
LogK Mn2+ (stability constant) [1]: 11.1
LogK Fe2+ (stability constant) [2]: 12.2
LogK Fe3+ (stability constant) [3]: 19.7
LogK Zn2+ (stability constant) [4]: 14.6
LogK Cu2+ (stability constant) [5]: 17.4
LogK Ca2+ (stability constant) [6]: 8.1

O=C(O)CN(CCO)CCN(CC(=O)O)CC(=O)O [HEEDTA]
LogK Mn2+ (stability constant) [1]: 10.7
LogK Fe2+ (stability constant) [2]: 12.2
LogK Fe3+ (stability constant) [3]: 19.6
LogK Zn2+ (stability constant) [4]: 14.5
LogK Cu2+ (stability constant) [5]: 17.4
LogK Ca2+ (stability constant) [6]: 8.0

O=C(O)CC(NC(CC(=O)O)C(=O)O)C(=O)O (centres unmarked) [IDHA, imidodisuccinic acid]
LogK Mn2+ (stability constant) [1]: 7.7
LogK Fe3+ (stability constant) [3]: 15.2
LogK Zn2+ (stability constant) [4]: 10.8
LogK Cu2+ (stability constant) [5]: 13.1

O=C(O)[C@@H](O)[C@@H](O)[C@H](O)[C@@H](O)C(=O)O [Saccharate]
LogK Mn2+ (stability constant) [1]: 8.5
LogK Fe3+ (stability constant) [3]: 24.5
LogK Cu2+ (stability constant) [5]: 14.0

Iron Citrate
% of PCR Analysis Showing No CLas (Ct values = 40) (CLas bacteria; at 30 ppm Fe, foliar): 0%
Average Ct values based on qPCR analysis of citrus leaves (CLas bacteria; at 30 ppm Fe, foliar): 29.7
Log Copy #/1 mg of Leaf Tissue (CLas bacteria; at 30 ppm Fe, foliar): 2.6
% of PCR Analysis Showing No CLas (Ct values = 40) (CLas bacteria; at 60 ppm Fe, foliar): 0%
Average Ct values based on qPCR analysis of citrus leaves (CLas bacteria; at 60 ppm Fe, foliar): 31.2
Log Copy #/1 mg of Leaf Tissue (CLas bacteria; at 60 ppm Fe, foliar): 2.1
Percentage of Trees Showing HLB Leaf Patterns (citrus greening disease; at 30 ppm Fe, foliar): 44%
Percentage of Trees Showing HLB Leaf Patterns (citrus greening disease; at 60 ppm Fe, foliar): 50%
LogK Fe2+ (stability constant) [2]: 3.2
